From patent US11866430B2, “Naphthyridinone compounds useful as T cell activators” (priority 2018, dated 2024)
Read-outs that look alike come from different tables or passages of the source.

Legend:
human DGKα [1] = biological target: T1, human DGKα (Homo sapiens (Human), UniProt P23743); experiment: DGKα LIPGLO assay (extruded liposome substrate); assay type: biochemical
Description: The DGKα and DGKζ reactions were performed using either extruded liposome (DGKα and DGKζ LIPGLO assays) or detergent/lipid micelle substrate (DGKα and DGKζ assays). The reactions were carried out in 50 mM MOPS pH 7.5, 100 mM NaCl, 10 mM MgCl2, 1 μM CaCl2, and 1 mM DTT (assay buffer). The reactions using a detergent/lipid micelle substrate also contained 50 mM octyl B-D-glucopyranoside. […] The lipid substrate concentrations were […], 0.25 mM DAG, and 2.75 mM PC for the extruded liposome reactions.
(§1) The compound inhibition studies were carried out as follows: 50 nL droplets of each test compound (top concentration 10 mM with 11 point, 3-fold dilution series for each compound) solubilized in DMSO were transferred to wells of a white 1536 well plate (Corning 3725). A 5 mL enzyme/substrate solution at 2× final reaction concentration was prepared by combining 2.5 mL 4× enzyme solution (20 nM DGKα or DGKζ (prepared as described below) in assay buffer) and 2.5 mL of either 4× liposome or 4× detergent/lipid micelle solution (compositions described below) and incubated at room temperature for 10 minutes. Next, 1 μL 2× enzyme/substrate solution was added to wells containing the test compound and reactions were initiated with the addition of 1 μL 300 uM ATP. The reactions were allowed to proceed for 1 hr, after which 2 μL Glo Reagent (Promega V9101) was added and incubated for 40 minutes. Next, 4 μL Kinase Detection Reagent was added and incubated for 30 minutes. Luminescence was recorded using an EnVision microplate reader. […] The compounds were evaluated at 11 concentrations to determine IC50.
(§2) The PC, DAG, and PS were dissolved in chloroform, combined, and dried in vacuo to a thin film. The lipids were hydrated to 20 mM in 50 mM MOPS pH 7.5, 100 mM NaCl, 5 mM MgCl2, and were freeze-thawed five times. The lipid suspension was extruded through a 100 nm polycarbonate filter eleven times. […] The liposome preparation was stored at 4° C. for as long as four weeks.
Human DGK-alpha-TVMV-His-pFBgate and human DCK-zeta-transcript variant-2-TVMV-His-pFBgate baculovirus samples were generated using the Bac-to-Bac baculovirus expression system (Invitrogen) according to the manufacturer's protocol. The DNA used for expression of DGK-alpha and DGK-zeta have SEQ ID NOs: 1 and 3, respectively. Baculovirus amplification was achieved using infected Sf9 cells at 1:1500 virus/cell ratios, and grown for 65 hours at 27° C. post-transfection.
(§3) The expression scale up for each protein was carried out in the Cellbag 50 L WAVE-Bioreactor System 20/50 from GE Healthcare Bioscience. 12 L of 2×10^6 cells/mL Sf9 cells (Expression System, Davis, Calif.) grown in ESF921 insect medium (Expression System) were infected with virus stock at 1:200 virus/cell ratios, and grown for 66-68 hours at 27° C. post-infection. The infected cell culture was harvested by centrifugation at 2000 rpm for 20 min 4° C. in a SORVALL® RC12BP centrifuge. The cell pellets were stored at −70° C. until purification.
Full length human DGKα and DGKζ, each expressed containing a TVMV-cleavable C-terminal Hexa-His tag sequence (SEQ ID NOs: 2 and 4, respectively) and produced as described above, were purified from Sf) baculovirus-infected insect cell paste. The cells were lysed using nitrogen cavitation method with a nitrogen bomb (Parr Instruments), and the lysates were clarified by centrifugation. […] The three steps column chromatography included nickel affinity resin capture (i.e. HisTrap FF crude, GE Healthcare), followed by size exclusion chromatography (i.e. HiLoad 26/600 Superdex 200 prep grade, GE Healthcare for DGK-alpha, and HiPrep 26/600 Sephacryl S 300_HR, GE Healthcare for DGK-zeta). The third step was ion exchange chromatography, and differed for the two isoforms.

human DGKζ [2] = biological target: T2, human DGKζ (Homo sapiens (Human), UniProt Q13574); experiment: DGKζ LIPGLO assay (extruded liposome substrate); assay type: biochemical; details: extruded liposome substrate; read-out: DGKζ LIPGLO IC50
T2 sequence (Q13574 other isoform, or with tags, fused parts or gaps): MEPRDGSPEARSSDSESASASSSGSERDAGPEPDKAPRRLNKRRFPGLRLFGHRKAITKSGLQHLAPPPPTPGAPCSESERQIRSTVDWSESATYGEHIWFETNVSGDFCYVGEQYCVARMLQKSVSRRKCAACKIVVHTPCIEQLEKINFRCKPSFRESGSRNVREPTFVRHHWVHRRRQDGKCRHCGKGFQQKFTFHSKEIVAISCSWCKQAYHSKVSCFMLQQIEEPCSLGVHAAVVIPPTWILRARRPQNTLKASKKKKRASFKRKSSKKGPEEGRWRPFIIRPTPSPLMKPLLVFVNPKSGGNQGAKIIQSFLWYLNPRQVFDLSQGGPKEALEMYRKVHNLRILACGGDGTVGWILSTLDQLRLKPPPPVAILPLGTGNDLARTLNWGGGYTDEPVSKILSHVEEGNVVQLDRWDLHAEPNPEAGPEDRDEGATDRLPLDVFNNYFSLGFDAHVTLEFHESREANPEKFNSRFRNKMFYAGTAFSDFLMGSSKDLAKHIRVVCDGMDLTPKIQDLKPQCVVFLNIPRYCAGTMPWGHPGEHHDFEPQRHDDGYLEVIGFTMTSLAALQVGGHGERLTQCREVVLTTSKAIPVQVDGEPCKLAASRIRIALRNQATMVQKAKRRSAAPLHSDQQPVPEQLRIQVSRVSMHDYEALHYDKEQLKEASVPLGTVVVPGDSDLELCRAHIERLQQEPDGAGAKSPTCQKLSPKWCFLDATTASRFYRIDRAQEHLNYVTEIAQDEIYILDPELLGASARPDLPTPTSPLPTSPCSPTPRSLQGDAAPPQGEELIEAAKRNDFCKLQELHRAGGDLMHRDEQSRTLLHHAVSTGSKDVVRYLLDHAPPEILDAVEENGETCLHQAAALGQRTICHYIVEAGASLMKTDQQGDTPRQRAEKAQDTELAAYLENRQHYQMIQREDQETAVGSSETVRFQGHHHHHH
Description: The DGKα and DGKζ reactions were performed using either extruded liposome (DGKα and DGKζ LIPGLO assays) or detergent/lipid micelle substrate (DGKα and DGKζ assays). The reactions were carried out in 50 mM MOPS pH 7.5, 100 mM NaCl, 10 mM MgCl2, 1 μM CaCl2, and 1 mM DTT (assay buffer). The reactions using a detergent/lipid micelle substrate also contained 50 mM octyl B-D-glucopyranoside.
as §1, with “A” for “The compound inhibition studies were carried out as follows: 50 nL droplets of each test compound (top concentration 10 mM with 11 point, 3-fold dilution series for each compound) solubilized in DMSO were transferred to wells of a white 1536 well plate (Corning 3725). A”
as §2
Baculovirus amplification was achieved using infected Sf9 cells at 1:1500 virus/cell ratios, and grown for 65 hours at 27° C. post-transfection.
as §3
The cells were lysed using nitrogen cavitation method with a nitrogen bomb (Parr Instruments), and the lysates were clarified by centrifugation. […] The three steps column chromatography included nickel affinity resin capture (i.e. HisTrap FF crude, GE Healthcare), followed by size exclusion chromatography (i.e. HiLoad 26/600 Superdex 200 prep grade, GE Healthcare for DGK-alpha, and HiPrep 26/600 Sephacryl S 300_HR, GE Healthcare for DGK-zeta). The third step was ion exchange chromatography, and differed for the two isoforms. DGKα was polished using Q-Sepharose anion exchange chromatography (GE Healthcare). DGKζ was polished using SP Sepharose cation exchange chromatography (GE Healthcare). The proteins were delivered at concentrations of ≥2 mg/mL. The formulation buffers were identical for both proteins: 50 mM Hepes, pH 7.2, 500 mM NaCl, 10% v/v glycerol, 1 mM TCEP, and 0.5 mM EDTA.

human DGKα [3] = biological target: T1, human DGKα; experiment: biochemical; details: detergent/lipid micelle substrate; read-out: DGKα IC50
Outline: (§4)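 Full-length human DGKζ (and DGKα), C-terminal His-tagged, Sf9-expressed, with phosphatidylserine/DAG micelles in 50 mM octyl glucoside; buffer 50 mM MOPS pH 7.5, 100 mM NaCl, 10 mM MgCl2, 1 μM CaCl2, 1 mM DTT.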

human DGKζ [4] = biological target: T2, human DGKζ; experiment: DGKζ assay (detergent/lipid micelle substrate); assay type: biochemical; details: detergent/lipid micelle substrate; read-out: DGKζ IC50
Outline: as §4

[5] = tested on: pre-activated CD4 T cells and Raji cells; experiment: Raji CD4 T Cell IL2 Assay; assay type: cell-based

T1 sequence (P23743 other isoform, or with tags, fused parts or gaps): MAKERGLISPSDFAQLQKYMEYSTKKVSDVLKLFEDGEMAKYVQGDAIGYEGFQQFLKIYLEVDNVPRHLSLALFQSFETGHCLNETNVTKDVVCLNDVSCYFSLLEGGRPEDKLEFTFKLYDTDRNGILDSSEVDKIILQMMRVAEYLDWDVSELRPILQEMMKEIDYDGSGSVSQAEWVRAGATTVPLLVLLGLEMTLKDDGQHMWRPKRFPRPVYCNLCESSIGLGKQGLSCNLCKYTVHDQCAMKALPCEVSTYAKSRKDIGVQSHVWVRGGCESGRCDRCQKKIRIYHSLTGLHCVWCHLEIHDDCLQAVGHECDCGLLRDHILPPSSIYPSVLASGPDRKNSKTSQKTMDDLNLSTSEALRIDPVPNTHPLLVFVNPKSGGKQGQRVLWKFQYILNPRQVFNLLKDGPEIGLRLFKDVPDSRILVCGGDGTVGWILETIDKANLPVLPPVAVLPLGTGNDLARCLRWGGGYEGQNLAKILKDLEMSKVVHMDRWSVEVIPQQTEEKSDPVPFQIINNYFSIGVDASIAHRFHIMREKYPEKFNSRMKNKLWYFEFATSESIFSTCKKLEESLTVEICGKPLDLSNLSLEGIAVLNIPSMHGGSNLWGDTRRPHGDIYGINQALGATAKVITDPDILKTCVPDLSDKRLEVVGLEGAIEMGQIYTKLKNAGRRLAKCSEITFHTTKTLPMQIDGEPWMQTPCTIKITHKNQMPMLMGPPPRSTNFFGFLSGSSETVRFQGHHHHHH

COc1ccccc1C(c1ccc(F)cc1)N1CCN(c2c(C#N)c(=O)n(C)c3ccc(Br)nc23)CC1 (single isomer, unassigned) [Example 14, 6-bromo-4-{4-[(4-fluorophenyl)(2-methoxyphenyl)methyl]piperazin-1-yl}-1-methyl-2-oxo-1,2-dihydro-1,5-naphthyridine-3-carbonitrile]
IC50 (human DGKα [1]): 4.7 µM
IC50 (human DGKζ [2]): 3.2 µM
IC50 (human DGKα [3]): 1.2 µM
IC50 (human DGKζ [4]): > 240 µM
IC50 [5]: 0.026 µM

COc1cc(F)ccc1C(c1ccc(F)cc1)N1CCN(c2c(C#N)c(=O)n(C)c3ccc(Br)nc23)CC1 (single isomer, unassigned) [Example 16, 6-bromo-4-{4-[(4-fluoro-2-methoxyphenyl)(4-fluorophenyl)methyl]piperazin-1-yl}-1-methyl-2-oxo-1,2-dihydro-1,5-naphthyridine-3-carbonitrile]
IC50 (human DGKα [1]): 4.3 µM
IC50 (human DGKζ [2]): 27 µM
IC50 (human DGKα [3]): 6.4 µM
IC50 (human DGKζ [4]): > 240 µM
IC50 ([5]; Homo sapiens, Raji): 0.021 µM

CC(c1ccc(F)cc1)N1CCN(c2c(C#N)c(=O)n(C)c3ccc(Br)nc23)CC1 (single isomer, unassigned) [Example 23, 6-bromo-4-{4-[1-(4-fluorophenyl)ethyl]piperazin-1-yl}-1-methyl-2-oxo-1,2-dihydro-1,5-naphthyridine-3-carbonitrile]
IC50 (human DGKα [1]): 1.9 µM
IC50 (human DGKζ [2]): 13 µM
IC50 (human DGKα [3]): 0.61 µM
IC50 (human DGKζ [4]): > 240 µM
IC50 [5]: 0.041 µM

CC(c1ccc(F)cc1)N1CCN(c2c(C#N)c(=O)n(C)c3ccc(Br)nc23)CC1 (single isomer, unassigned) [Example 24, 6-bromo-4-{4-[1-(4-fluorophenyl)ethyl]piperazin-1-yl}-1-methyl-2-oxo-1,2-dihydro-1,5-naphthyridine-3-carbonitrile]
IC50 (human DGKα [1]): 0.15 µM
IC50 (human DGKζ [2]): 90 µM
IC50 (human DGKα [3]): 0.034 µM
IC50 (human DGKζ [4]): > 240 µM
IC50 [5]: 0.012 µM

COc1ccc2c(n1)c(N1CCN(C(c3ccc(F)cc3)c3ccccc3O)CC1)c(C#N)c(=O)n2C (centres unmarked) [Example 104, 4-(4-((4-fluorophenyl)(2-hydroxyphenyl)methyl)piperazin-1-yl)-6-methoxy-1-methyl-2-oxo-1,2-dihydro-1,5-naphthyridine-3-carbonitrile]
IC50 (human DGKα [1]): 0.74 µM
IC50 (human DGKζ [2]): 0.78 µM
IC50 ([5]; Homo sapiens, Raji): 0.44 µM

O=c1c([N+](=O)[O-])c(N2CCN(C(c3ccccc3)c3ccccc3)CC2)c2ncccc2n1CCC1OCCCO1 [Example 166, 1-(2-(1,3-dioxan-2-yl)ethyl)-4-(4-benzhydrylpiperazin-1-yl)-3-nitro-1,5-naphthyridin-2(1H)-one]
IC50 (human DGKα [1]): 210 µM
IC50 (human DGKζ [2]): 230 µM
IC50 ([5]; Homo sapiens, Raji): 3.8 µM

C=CCn1c(=O)c([N+](=O)[O-])c(N2CCN(C(c3ccccc3)c3ccccc3)CC2)c2ncccc21 [Example 176, 1-all-4-(4-benzhydrylpiperazin-1-yl)-3-nitro-1,5-naphthyridin-2(1H)-one]
IC50 (human DGKα [1]): > 240 µM
IC50 (human DGKζ [2]): 27 µM
IC50 ([5]; Homo sapiens, Raji): 3 µM

Cc1ccc2c(n1)c(N1CCN(C(c3ccc(F)cc3)c3ccc(F)cc3)CC1)c(C(=O)C(F)(F)F)c(=O)n2C [Example 228, 4-(4-(bis(4-fluorophenyl)methyl)piperazin-1-yl)-1,6-dimethyl-3-(2,2,2-trifluoroacetyl)-1,5-naphthyridin-2(1H)-one]
IC50 (human DGKα [1]): > 240 µM
IC50 (human DGKζ [2]): 9.7 µM
IC50 (human DGKζ [4]): > 240 µM
IC50 ([5]; Homo sapiens, Raji): 0.11 µM

Cn1c(=O)c([N+](=O)[O-])c(N2CCN(C(C)(C)c3ccc(F)cc3)CC2)c2nc(C#N)ccc21 [Example 260, 8-{4-[2-(4-fluorophenyl)propan-2-yl]piperazin-1-yl}-5-methyl-7-nitro-6-oxo-5,6-dihydro-1,5-naphthyridine-2-carbonitrile]
IC50 (human DGKα [1]): 1.6 µM
IC50 (human DGKζ [2]): 5.3 µM
IC50 (human DGKα [3]): 0.35 µM
IC50 ([5]; Homo sapiens, Raji): 0.018 µM

Cn1c(=O)c(C#N)c(N2CCN(Cc3ccc(F)cc3)CC2)c2nc(Cl)ccc21 [Example 308, 6-chloro-4-{4-[(4-fluorophenyl)methyl]piperazin-1-yl}-1-methyl-2-oxo-1,2-dihydro-1,5-naphthyridine-3-carbonitrile]
IC50 (human DGKα [1]): 0.95 µM
IC50 (human DGKζ [2]): 13 µM
IC50 (human DGKα [3]): 0.19 µM
IC50 ([5]; Homo sapiens, Raji): 0.21 µM

CCn1ccc2c(CN3CCN(c4c(C#N)c(=O)n(C)c5cccnc45)CC3)cccc21 [Example 334, 4-{4-[(1-ethyl-1H-indol-4-yl)methyl]piperazin-1-yl}-1-methyl-2-oxo-1,2-dihydro-1,5-naphthyridine-3-carbonitrile]
IC50 (human DGKα [1]): 1.7 µM
IC50 (human DGKζ [2]): 27 µM
IC50 ([5]; Homo sapiens, Raji): 0.54 µM

Cn1c(=O)c(C#N)c(N2CCN(C(c3ccccc3)c3ccccc3O)CC2)c2ncccc21 (centres unmarked) [Example 349, 4-{4-[(2-hydroxyphenyl)(phenyl)methyl]piperazin-1-yl}-1-methyl-2-oxo-1,2-dihydro-1,5-naphthyridine-3-carbonitrile]
IC50 (human DGKα [1]): 1.3 µM
IC50 (human DGKζ [2]): 32 µM
IC50 ([5]; Homo sapiens, Raji): 1.4 µM

Cn1c(=O)c(C#N)c(N2CCN(C(c3ccccc3)c3ccccc3)CC2)c2nc(Cl)ccc21 [Example 358, 6-chloro-4-[4-(diphenylmethyl)piperazin-1-yl]-1-methyl-2-oxo-1,2-dihydro-1,5-naphthyridine-3-carbonitrile]
IC50 (human DGKα [1]): > 240 µM
IC50 (human DGKζ [2]): > 240 µM
IC50 ([5]; Homo sapiens, Raji): 6.5 µM

Cn1c(=O)cc(N2CCN(C(c3ccc(F)cc3)c3ccc(F)cc3)CC2)c2ncccc21 [Example 426, 4-(4-(bis(4-fluorophenyl)methyl)piperazin-1-yl)-1-methyl-1,5-naphthyridin-2(1H)-one]
IC50 (human DGKα [1]): 170 µM
IC50 (human DGKζ [2]): > 240 µM
IC50 ([5]; Homo sapiens, Raji): 20 µM
